In patent US20130116227A1, “BIARYL AMIDE DERIVATIVE OR PHARMACEUTICALLY ACCEPTABLE SALT THEREOF” (DAINIPPON SUMITOMO PHARMA CO., LTD., priority 2010, published 2013):

What follows are compounds tested against T1, aldosterone receptor (Rattus norvegicus, UniProt P22199) (assay: Binding inhibition test for aldosterone receptor ([3H]aldosterone, rat renal soluble fraction)). Settings: [3H]aldosterone 2 nM, rat renal soluble fraction, in the presence of 2 μM RU-486, 4° C. about 18 hours; read-out: MR IC50.
T1 construct: centrifuged at 105,000 g for 30 minutes, and then a supernatant was collected as a renal soluble fraction; from tissue; host or cells: rat kidney (adrenalectomized rat), 105,000 g supernatant (cytosol)
T1 sequence (P22199 1-981): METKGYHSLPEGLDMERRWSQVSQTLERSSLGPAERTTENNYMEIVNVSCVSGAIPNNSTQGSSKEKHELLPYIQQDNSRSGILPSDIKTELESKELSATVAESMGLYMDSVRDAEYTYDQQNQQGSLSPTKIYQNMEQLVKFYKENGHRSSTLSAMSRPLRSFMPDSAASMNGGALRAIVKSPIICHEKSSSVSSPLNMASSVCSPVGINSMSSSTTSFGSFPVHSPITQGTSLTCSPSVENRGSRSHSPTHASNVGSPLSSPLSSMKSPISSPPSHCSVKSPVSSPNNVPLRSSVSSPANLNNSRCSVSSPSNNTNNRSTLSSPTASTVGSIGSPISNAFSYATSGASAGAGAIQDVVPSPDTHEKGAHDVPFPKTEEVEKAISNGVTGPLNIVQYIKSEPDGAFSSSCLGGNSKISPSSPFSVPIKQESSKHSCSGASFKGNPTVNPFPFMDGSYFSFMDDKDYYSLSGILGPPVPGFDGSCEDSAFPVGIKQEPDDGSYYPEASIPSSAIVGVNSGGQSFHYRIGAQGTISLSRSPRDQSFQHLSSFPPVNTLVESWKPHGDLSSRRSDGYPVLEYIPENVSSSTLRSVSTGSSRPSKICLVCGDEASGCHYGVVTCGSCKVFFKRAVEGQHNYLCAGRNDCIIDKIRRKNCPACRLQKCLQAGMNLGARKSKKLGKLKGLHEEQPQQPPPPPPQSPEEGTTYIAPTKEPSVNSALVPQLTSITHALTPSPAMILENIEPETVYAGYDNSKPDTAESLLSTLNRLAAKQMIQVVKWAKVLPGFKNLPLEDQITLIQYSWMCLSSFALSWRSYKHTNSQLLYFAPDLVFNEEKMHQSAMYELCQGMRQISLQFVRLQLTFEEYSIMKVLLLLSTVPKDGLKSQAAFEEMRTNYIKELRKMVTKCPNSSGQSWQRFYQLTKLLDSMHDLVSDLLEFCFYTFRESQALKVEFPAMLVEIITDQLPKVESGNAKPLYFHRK
Method: Binding Inhibition Test for Aldosterone Receptor
A rat was layed open in flank regions (on both sides) to remove both adrenal glands. After stitching up the incision, the rat was returnd to a breeding cage again. After removing the kidney from the rat reared for about 3 to 5 days, the kidney was homogenized in 0.1 M Tris-HCl, 0.25M sucrose, 0.1M Na2MoO4 and 2 mM DTT buffer solution (pH7.4). The resultant was centrifuged at 105,000 g for 30 minutes, and then a supernatant was collected as a renal soluble fraction.
The rat renal soluble fraction (0.5 to 1.5 mg), a labeled ligand [^3H] aldosterone (2 nM) and a test article were reacted in the presence of 2 μM RU-486 (glucocorticoid receptor antagonist) in 100 μL of total amounts at 4° C. for about 18 hours. Afterwards, to the reaction solution was added 50 μL of 5% dextran-coated activated charcoal, and the mixture was immingled, and then centrifuged at 3,000 g for 5 minutes. Then, a supernatant (100 μL) was collected and mixed with a liquid scintillator ACS-II (Amersham) (3.5 mL), and then analyzed its radioactivity by a liquid scintillation counter (manufactured by Packard, Tri Carb 2700TR). A non-specific binding was obtained by addition of 2 μM aldosterone to a reaction solution. […]
Binding inhibition rate (%)=100−{(B−N)/(B0−N)}×100
B: labeled ligand binding amounts in the presence of a test article and a labeled ligand
B0: labeled ligand binding amounts in the absence of a test article
N: labeled ligand binding amounts in the presence of excess aldosterone (2 μM)
Test example 1 was carried out for compounds obtained in the Examples.

SMILES	IC50 [nM]
CNS(=O)(=O)c1ccc(NC(=O)c2ccc(-c3ccccc3C(F)(F)F)cc2)cc1OC [Example 51]	200
COc1cc(NC(=O)c2ccc(-c3cccnc3C3CCC3)c(C)c2)ccc1S(N)(=O)=O [Example 282]	730
CC(=O)OCc1cc(C(=O)Nc2ccc(S(C)(=O)=O)cc2)ccc1-c1ccccc1C(F)(F)F [Example 64]	400
COc1cc(NC(=O)c2ccc(-c3ccccc3-c3nc(C)no3)c(CO)c2)ccc1S(N)(=O)=O [Example 259]	450
COC(=O)c1cc(OC)ccc1-c1ccc(C(=O)Nc2ccc(S(N)(=O)=O)c(OC)c2)cc1 [Example 24]	2400
COc1cc(C(=O)Nc2ccc(-c3ccccc3C(F)(F)F)c(CNCC(F)F)c2)ccc1S(N)(=O)=O [Example 389]	560
COc1cc(NC(=O)c2ccc(-c3ccc(F)cc3C(F)(F)F)cc2)ccc1S(N)(=O)=O [Example 17]	1700
CCOc1ncccc1-c1ccc(C(=O)Nc2ccc(S(N)(=O)=O)c(OC)c2)cc1CNCC(F)F [Example 463]	< 10000
COc1cc(NC(=O)c2ccc(-c3ccccc3C(F)(F)F)c(CNCC(F)F)c2)ccc1S(N)(=O)=O [Example 268]	990
COc1cc(NC(=O)c2ccc(-c3ccccc3OC(F)(F)F)cc2)ccc1S(N)(=O)=O [Example 12]	610
COc1cc(C(=O)Nc2ccc(-c3ccccc3C(F)(F)F)c(COC3CCOCC3)c2)ccc1S(N)(=O)=O [Example 410]	520
COc1cc(NC(=O)c2ccc(-c3ccccc3OC(C)C)cc2)ccc1S(N)(=O)=O [Example 39]	1200
COc1cc(NC(=O)c2ccc(-c3ccccc3C(F)(F)F)c(COCCCO)c2)ccc1S(N)(=O)=O [Example 103]	130
COc1cc(NC(=O)c2ccc(-c3ccccc3F)c(CNCC(F)F)c2)ccc1S(N)(=O)=O [Example 419]	1200
COc1cc(NC(=O)c2ccc(-c3ccccc3C(F)(F)F)c(CNC(C)C)c2)ccc1S(N)(=O)=O [Example 85]	540
COc1cc(C(=O)Nc2ccc(-c3ccccc3Cl)c(CNCC(F)F)c2)ccc1S(N)(=O)=O [Example 488]	< 10000

SMILES	IC50 [nM]
CCN(CC)c1cc(C(=O)Nc2ccc(S(N)(=O)=O)c(OC)c2)ccc1-c1ccccc1C(F)(F)F [Example 132]	290
COc1cc(NC(=O)c2ccc(-c3ccc(F)cc3F)c(CNCC(F)F)c2)ccc1S(N)(=O)=O [Example 414]	1700
COc1cc(C(=O)Nc2ccc(-c3ccccc3C(F)(F)F)c(CNC3CC3)c2)ccc1S(N)(=O)=O [Example 403]	630
COc1cc(C(=O)Nc2ccc(-c3ccccc3C(F)(F)F)c(Cc3nccn3C)c2)ccc1S(N)(=O)=O [Example 550]	620
COc1cc(NC(=O)c2ccc(-c3cccc(Cl)c3Cl)c(CNCC(F)F)c2)ccc1S(N)(=O)=O [Example 454]	< 10000
CS(=O)(=O)c1ccc(NC(=O)c2ccc(-c3ccccc3OC(F)(F)F)c(CNCC(F)F)c2)cc1 [Example 176]	390
COc1cc(NC(=O)c2ccc(-c3ccc(O)cc3C(F)(F)F)cc2)ccc1S(N)(=O)=O [Example 26]	490
COc1cc(NC(=O)c2ccc(-c3ccccc3OC(F)(F)F)c(CNC3=NCCO3)c2)ccc1S(N)(=O)=O [Example 309]	230
CCN(CC)Cc1cc(C(=O)Nc2ccc(S(N)(=O)=O)c(OC)c2)ccc1-c1ccccc1OC(F)(F)F [Example 295]	100
COc1cc(C(=O)Nc2ccc(-c3ccccc3C(F)(F)F)c(CCl)c2)ccc1S(N)(=O)=O [Example 324]	190
COc1cc(NC(=O)c2ccc(-c3ccc(C)cc3C(F)(F)F)c(CNCC(F)F)c2)ccc1S(N)(=O)=O [Example 440]	< 10000
COc1cc(C(=O)Nc2ccc(-c3ccccc3N3C[C@@H](C)O[C@@H](C)C3)c(C)c2)ccc1S(N)(=O)=O [Example 345]	140
COc1cc(C(=O)Nc2ccc(-c3ccc(O)cc3C(F)(F)F)c(CO)c2)ccc1S(N)(=O)=O [Example 315]	420
CS(=O)(=O)c1ccc(NC(=O)c2ccc(-c3ccccc3OC(F)(F)F)c(CN[C@@H]3CCCc4ccccc43)c2)cc1 [Example 229]	< 100
COc1cc(NC(=O)c2ccc(-c3ccccc3C(F)(F)F)c(CNC[C@H]3CCCO3)c2)ccc1S(N)(=O)=O [Example 91]	260
COc1cc(NC(=O)c2ccc(-c3ccc(F)cc3C(F)(F)F)c(CO)c2)ccc1S(N)(=O)=O [Example 127]	220

Results, then the compound that gave them:

IC50 [nM]	SMILES
180	COc1cc(NC(=O)c2ccc(-c3ccccc3OC(F)(F)F)c(CN3CCC(F)(F)CC3)c2)ccc1S(N)(=O)=O [Example 286]
< 10000	CS(=O)(=O)c1ccc(NC(=O)c2ccc(-c3ccccc3OC(F)(F)F)c(CN3CCC3)c2)cc1 [Example 508]
120	COc1cc(NC(=O)c2ccc(-c3ccccc3OC(F)(F)F)c(CNC3CC3)c2)ccc1S(N)(=O)=O [Example 288]
350	COc1cc(NC(=O)c2ccc(-c3ccccc3C3CCCCC3)cc2)ccc1S(N)(=O)=O [Example 35]
1600	COc1cc(NC(=O)c2ccc(-c3ccccc3CN3CCOCC3)cc2)ccc1S(N)(=O)=O [Example 22]
140	COc1cc(NC(=O)c2ccc(-c3ccccc3OC(F)(F)F)c(CN3CCCCCCC3)c2)ccc1S(N)(=O)=O [Example 299]
60	COc1cc(NC(=O)c2ccc(-c3ccccc3OC(F)(F)F)c(CO)c2)ccc1S(N)(=O)=O [Example 122]
350	COc1cc(C(=O)Nc2ccc(-c3ccccc3OC(F)(F)F)c(CCO)c2)ccc1S(N)(=O)=O [Example 335]
320	COc1cc(NC(=O)c2ccc(-c3ccccc3C(F)(F)F)c(CN3CCOCC3)c2)ccc1S(N)(=O)=O [Example 79]
250	COc1cc(C(=O)Nc2ccc(-c3ccccc3C(F)(F)F)c(CO)c2)ccc1S(N)(=O)=O [Example 323-2]
260	COc1cc(C(=O)Nc2ccc(-c3ccccc3C(F)(F)F)c(Cn3nccn3)c2)ccc1S(N)(=O)=O [Example 407]
360	COc1cc(NC(=O)c2ccc(-c3ccccc3OC(F)(F)F)c(CNC3CCC3)c2)ccc1S(N)(=O)=O [Example 289]
3000	COCc1ccccc1-c1ccc(C(=O)Nc2ccc(S(N)(=O)=O)c(OC)c2)cc1 [Example 28]
650	COc1cc(NC(=O)c2ccc(-c3ccccc3SC)cc2)ccc1S(N)(=O)=O [Example 57]
880	COc1cc(NC(=O)c2ccc(-c3ccccc3C(F)(F)F)c(CN3CCCC3)c2)ccc1S(N)(=O)=O [Example 75]
2000	CS(=O)(=O)c1ccc(NC(=O)c2ccc(-c3ccccc3OC(F)(F)F)c(CN3CCCC3)c2)cc1 [Example 160]
190	COc1cc(C(=O)Nc2ccc(-c3ccccc3C(F)(F)F)c(CN3CCC4(C3)OCCO4)c2)ccc1S(N)(=O)=O [Example 395]
1100	COc1cc(C(=O)Nc2ccc(-c3ccccc3CN3CCOCC3)c(C)c2)ccc1S(N)(=O)=O [Example 337]
< 10000	COc1cc(NC(=O)c2ccc(-c3ccccc3C3CC3)c(CNCC(F)F)c2)ccc1S(N)(=O)=O [Example 448]
220	COc1cc(NC(=O)c2ccc(-c3ccccc3C(F)(F)F)c(CO)c2)ccc1S(N)(=O)=O [Example 69]

Same assay, conditions: rat renal soluble fraction, [3H] aldosterone 2 nM, in the presence of 2 μM RU-486

binding affinities for aldosterone receptor	SMILES
very few binding affinities	COc1cccc(NC(=O)c2ccc(-c3ccccc3)c(CN3CCCCC3)c2)c1 [compound 1, reference compound]
